Measured values from EP4741392A1, “1H-PYRAZOLO[4,3-C]PYRIDINE COMPOUND, AND COMPOSITION THEREOF AND USE THEREOF” (Shenzhen TargetRx Co., Ltd., priority 2023, dated 2025).
pIC50: −log10 of the molar value.

Tests used:
Format in all cases: cell-based
NIH/3T3 BTK C481S cells = assay: Phosphor-BTK(Y223) assay, adherent cells; settings: Mus musculus, NIH3T3, phosphorylated BTK Y223, NIH/3T3 BTK C481S cells; read-out: NIH/3T3 BTK-C481S pBTK
Procedure, shortened: (§1)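 NIH/3T3 cells expressing WT or C481S BTK were pretreated with compound for 0.5 h at 37 °C, then stimulated with 1 mM Na3VO4 (final) for 2 h. Lysates were assayed by HTRF for p-BTK Y223 using the 665/620 nm ratio. IC50 was obtained by nonlinear fit of % inhibition versus 0.5% DMSO control.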

NIH/3T3 BTK WT cells = assay: Phosphor-BTK(Y223) assay, adherent cells; settings: Mus musculus, NIH3T3, phosphorylated BTK Y223, NIH/3T3 BTK WT cells; read-out: NIH/3T3 BTK-WT pBTK
Procedure, shortened: as §1

Ramos cells with BTK WT = assay: Phosphor-BTK(Y223) assay, suspended cells; settings: Homo sapiens, Ramos, phosphorylated BTK Y223, Ramos cells with BTK WT
Procedure, shortened: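 Ramos BTK WT cells (2.5 k/well) were treated with compound dilutions for 2 h at 37 °C, then 5 mM Na3VO4 for 3 h. Lysates were read by HTRF p-BTK(Y223) cryptate/d2 antibodies overnight at RT (665/620 ratio). IC50 came from a four-parameter fit of % inhibition versus blank and positive-control wells.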

| SMILES | pIC50 (Ramos cells with BTK WT) | pIC50 (NIH/3T3 BTK C481S cells) | pIC50 (NIH/3T3 BTK WT cells) |
| --- | --- | --- | --- |
| COc1ccc(F)cc1C(=O)NCc1ccc(-c2ncc(-c3ccn(CC(=O)N(C)C)n3)c3[nH]nc(N)c23)cc1 [Example 25, N-(4-(3-amino-7-(1-(2-(dimethylamino)-2-oxoethyl)-1H-pyrazol-3-yl)-1H-pyrazolo[4,3-c]pyridin-4-yl)benzyl)-5-fluoro-2-methoxybenzamide] | 8.00 to 8.30 | 7.30 to 8.00 | 7.30 to 8.00 |
| CNC(=O)Cn1ccc(-c2cnc(-c3ccc(CNC(=O)c4cc(F)ccc4OC)cc3)c3c(N)n[nH]c23)n1 [Example 26, N-(4-(3-amino-7-(1-(2-(methylamino)-2-oxoethyl)-1H-pyrazol-3-yl)-1H-pyrazolo[4,3-c]pyridin-4-yl)benzyl)-5-fluoro-2-methoxybenzamide] | ≥ 8.30 | 7.30 to 8.00 | 7.30 to 8.00 |
| COc1ccc(F)cc1C(=O)NCc1ccc(-c2ncc(-c3ccn(CC(F)(F)F)n3)c3[nH]nc(N)c23)cc1 [Example 28, N-(4-(3-amino-7-(1-(2,2,2-trifluoroethyl)-1H-pyrazol-3-yl)-1H-pyrazolo[4,3-c]pyridin-4-yl)benzyl)-5-fluoro-2-methoxybenzamide] | 7.30 to 8.00 | 7.30 to 8.00 | ≥ 8.30 |
| COc1ccc(F)cc1C(=O)NCc1ccc(-c2ncc(-c3cn(C)cn3)c3[nH]nc(N)c23)cc1 [Example 30, N-(4-(3-amino-7-(1-methyl-1H-imidazol-4-yl)-1H-pyrazolo[4,3-c]pyridin-4-yl)benzyl)-5-fluoro-2-methoxybenzamide] | 7.30 to 8.00 | 8.00 to 8.30 | ≥ 8.30 |
| COc1ccc(F)cc1C(=O)NCc1ccc(-c2ncc(-c3cc[nH]n3)c3[nH]nc(N)c23)cc1 [Example 31, N-(4-(3-amino-7-(1H-pyrazol-3-yl)-1H-pyrazolo[4,3-c]pyridin-4-yl)benzyl)-5-fluoro-2-methoxybenzamide] | 7.30 to 8.00 | 7.30 to 8.00 | 8.00 to 8.30 |
| COc1ccc(F)cc1C(=O)NCc1ccc(-c2ncc(-c3ccc(S(C)(=O)=O)cn3)c3[nH]nc(N)c23)cc1 [Example 35, N-(4-(3-amino-7-(5-(methylsulfonyl)pyridin-2-yl)-1H-pyrazolo[4,3-c]pyridin-4-yl)benzyl)-5-fluoro-2-methoxybenzamide] | ≥ 8.30 | ≥ 8.30 | ≥ 8.30 |
| COc1ccc(F)cc1C(=O)NCc1ccc(-c2ncc(-c3ncc(F)cn3)c3[nH]nc(N)c23)cc1 [Example 36, N-(4-(3-amino-7-(5-fluoropyrimidin-2-yl)-1H-pyrazolo[4,3-c]pyridin-4-yl)benzyl)-5-fluoro-2-methoxybenzamide] | 7.30 to 8.00 | 8.00 to 8.30 | 8.00 to 8.30 |
| COc1ccc(F)cc1C(=O)NCc1ccc(-c2ncc(-c3ccc(C)cn3)c3[nH]nc(N)c23)cc1 [Example 37, N-(4-(3-amino-7-(5-methylpyridin-2-yl)-1H-pyrazolo[4,3-c]pyridin-4-yl)benzyl)-5-fluoro-2-methoxybenzamide] | ≥ 8.30 | ≥ 8.30 | ≥ 8.30 |
| COc1ccc(F)cc1C(=O)NCc1ccc(-c2ncc(-c3ccc(Cl)cn3)c3[nH]nc(N)c23)cc1 [Example 38, N-(4-(3-amino-7-(5-chloropyridin-2-yl)-1H-pyrazolo[4,3-c]pyridin-4-yl)benzyl)-5-fluoro-2-methoxybenzamide] | ≥ 8.30 | ≥ 8.30 | ≥ 8.30 |
| COc1ccc(F)cc1C(=O)NCc1ccc(-c2ncc(-c3ncc(C)cn3)c3[nH]nc(N)c23)cc1 [Example 39, N-(4-(3-amino-7-(5-methylpyrimidin-2-yl)-1H-pyrazolo[4,3-c]pyridin-4-yl)benzyl)-5-fluoro-2-methoxybenzamide] | ≥ 8.30 | ≥ 8.30 | ≥ 8.30 |
| COc1ccc(F)cc1C(=O)NCc1ccc(-c2ncc(-c3ccc(OC(F)(F)F)cn3)c3[nH]nc(N)c23)cc1 [Example 41, N-(4-(3-amino-7-(5-(trifluoromethoxy)pyridin-2-yl)-1H-pyrazolo[4,3-c]pyridin-4-yl)benzyl)-5-fluoro-2-methoxybenzamide] | ≥ 8.30 | 8.00 to 8.30 | ≥ 8.30 |
| COc1ccc(F)cc1C(=O)NCc1ccc(-c2ncc(-c3ncc(C(F)(F)F)cn3)c3[nH]nc(N)c23)cc1 [Example 42, N-(4-(3-amino-7-(5-(trifluoromethyl)pyrimidin-2-yl)-1H-pyrazolo[4,3-c]pyridin-4-yl)benzyl)-5-fluoro-2-methoxybenzamide] | 7.30 to 8.00 | 7.30 to 8.00 | ≥ 8.30 |

The next lines start with results.

| pIC50 (Ramos cells with BTK WT) | SMILES | pIC50 (NIH/3T3 BTK C481S cells) | pIC50 (NIH/3T3 BTK WT cells) |
| --- | --- | --- | --- |
| ≥ 8.30 | COc1ccc(F)cc1C(=O)NCc1ccc(-c2ncc(-c3ccc(C4COC4)cn3)c3[nH]nc(N)c23)cc1 [Example 43, N-(4-(3-amino-7-(5-(oxetan-3-yl)pyridin-2-yl)-1H-pyrazolo[4,3-c]pyridin-4-yl)benzyl)-5-fluoro-2-methoxybenzamide] | ≥ 8.30 | ≥ 8.30 |
| ≥ 8.30 | COc1ccc(F)cc1C(=O)NCc1ccc(-c2ncc(-c3cc4ncccn4n3)c3[nH]nc(N)c23)cc1 [Example 44, N-(4-(3-amino-7-(pyrazolo[1,5-a]pyrimidin-2-yl)-1H-pyrazolo[4,3-c]pyridin-4-yl)benzyl)-5-fluoro-2-methoxybenzamide] | ≥ 8.30 | ≥ 8.30 |
| < 7.30 | CCOC(=O)c1cnc2cc(-c3cnc(-c4ccc(CNC(=O)c5cc(F)ccc5OC)cc4)c4c(N)n[nH]c34)nn2c1 [Example 45, ethyl 2-(3-amino-4-(4-((5-fluoro-2-methoxybenzoylamino)methyl)phenyl)-1H-pyrazolo[4,3-c]pyridin-7-yl)pyrazolo[1,5-a]pyrimidine-6-carboxylate] | 7.30 to 8.00 | 7.30 to 8.00 |
| ≥ 8.30 | COc1ccc(F)cc1C(=O)NCc1ccc(-c2ncc(-c3ccn4nccc4n3)c3[nH]nc(N)c23)cc1 [Example 46, N-(4-(3-amino-7-(pyrazolo[1,5-a]pyrimidin-5-yl)-1H-pyrazolo[4,3-c]pyridin-4-yl)benzyl)-5-fluoro-2-methoxybenzamide] | 8.00 to 8.30 | ≥ 8.30 |
| 8.00 to 8.30 | COc1ccc(F)cc1C(=O)NCc1ccc(-c2ncc(-c3ccc4cn[nH]c4n3)c3[nH]nc(N)c23)cc1 [Example 47, N-(4-(3-amino-7-(1H-pyrazolo[3,4-b]pyridin-6-yl)-1H-pyrazolo[4,3-c]pyridin-4-yl)benzyl)-5-fluoro-2-methoxybenzamide] | 7.30 to 8.00 | 8.00 to 8.30 |
| ≥ 8.30 | COc1ccc(F)cc1C(=O)NCc1ccc(-c2ncc(-c3ccc(C(F)F)cn3)c3[nH]nc(N)c23)cc1 [Example 48, N-(4-(3-amino-7-(5-(difluoromethyl)pyridin-2-yl)-1H-pyrazolo[4,3-c]pyridin-4-yl)benzyl)-5-fluoro-2-methoxybenzamide] | ≥ 8.30 | ≥ 8.30 |
| 8.00 to 8.30 | COc1ccc(F)cc1C(=O)NCc1ccc(-c2ncc(-c3cn4ccnc4cn3)c3[nH]nc(N)c23)cc1 [Example 50, N-(4-(3-amino-7-(imidazo[1,2-a]pyrazin-6-yl)-1H-pyrazolo[4,3-c]pyridin-4-yl)benzyl)-5-fluoro-2-methoxybenzamide] | 8.00 to 8.30 | ≥ 8.30 |
